Results reported in US20180064808A1, “COMBINATION THERAPY OF BISPECIFIC ANTIBODIES SPECIFIC FOR FAP AND DR5 AND CHEMOTHERAPEUTIC AGENTS” (Hoffmann-La Roche Inc., priority 2014, published 2018).

How the values were obtained:
[1] = system: Aspc1; test: Combination screen PDAC cell lines (CellTiter-Glo); format: cell-based; conditions: Aspc1
Procedure: (§1) A panel of CRC and PDAC cell lines was assessed and combination partners of potential clinical relevance for the respective tumor indications were used for evaluation of combination effects (CRC: irinotecan, oxaliplatin, 5-FU, MDM2 inhibitor (RG7388), Bcl-2 inhibitor (ABT199); PDAC: Abraxane, Paclitaxel, Gemcitabine, Doxorubicin, MDM2i (RG7388), Bc12i (ABT199), Bortezomib, Cyclopamine, PARP inhibitor (PJ34)).
(§2) Cells were seeded (numbers vary depending on the cell line) in black 96-well microplate with clear, flat bottom and incubated overnight at 37° C. and 5% CO2. After checking the adherence/confluence of cells, the medium was removed and 100 μl of fresh medium containing the corresponding compound was added to each well. A sequential dilution series (1:4) of 8 concentrations per compound (n=3) were used. Corresponding DMSO concentration and media alone were used as controls.
(§3) After incubation for 3 days at 37° C. and 5% CO2, 100 μl per well CellTiter-Glo reagent (Promega) was added to the plate. Luminescence was measured after 30 minutes agitation at room temperature. IC50-values were calculated with XL-Fit software. Each experiment with one compound was repeated at least twice.
(§4) Cells were seeded (numbers vary depending on the cell line) in black 96-well microplate with clear, flat bottom and incubated overnight at 37° C. and 5% CO2. After checking the adherence/confluence of cells, the medium was removed and 100 μl of fresh medium containing the corresponding compound or combination was added to each well.
(§5) A sequential 1:3 dilution series of 9 concentrations of Drozitumab/anti-human-Fc was done on a 96-well PP-V-bottom microplate (n=6). […] 25 μl/well of the Drozitumab/anti-human-Fc series were then transferred to the cells.
(§6) After incubation for 3 days at 37° C. and 5% CO2 100 μl per well CellTiter-Glo reagent (Promega) were given to the plates. Luminescence was measured after 30 minutes agitation at room temperature.
(§7) For each concentration of Drozitumab/anti-human-Fc and Drozitumab/anti-human-Fc+compound triplicates were done on the same plate and each experiment was repeated at least twice.

[2] = system: Capan2; test: Combination screen PDAC cell lines (CellTiter-Glo); format: cell-based; conditions: Capan2
Procedure: as §1, §2, §3, §4, §5, §6, §7

[3] = system: Panc1; test: Combination screen PDAC cell lines (CellTiter-Glo); format: cell-based; conditions: Panc1
Procedure: as §1, §2, §3, §4, §5, §6, §7

[4] = system: Bxpc3; test: Combination screen PDAC cell lines (CellTiter-Glo); format: cell-based; conditions: Bxpc3
Procedure: as §1, §2, §3, §4, §5, §6, §7

[5] = system: LOX-IMVI desmoplastic melanoma xenograft; test: LOX-IMVI desmoplastic melanoma cell line based xenograft model; format: in vivo, nude mice; conditions: doxorubicin alone 5 mg/kg q7d
From the text: The in vivo antitumor efficacy of the bispecific antibody DR5-FAP (DR5 binder: VH SEQ ID NO.:7, VL SEQ ID NO.: 8, FAP binder: VH SEQ ID NO.:15, VL SEQ ID NO.: 16) could be detected in cell and fragment based patient derived (PDX) models of various tumor origin (e.g. CRC, pancreatic cancer, desmoplastic melanoma and sarcoma) transplanted on nude mice. As example data for combination efficacy of bispecific antibody DR5-FAP (DR5 binder: VH SEQ ID NO.:7, VL SEQ ID NO.: 8, FAP binder: VH SEQ ID NO.:15, VL SEQ ID NO.: 16) and chemotherapeutics that activate the intrinsic apoptosis pathway are shown for the CRC xenograft model DLD-1 and HCT116 (cell line based, co-injection model) and Co5896 (fragment based).
The bispecific antibody DR5-FAP (DR5 binder: VH SEQ ID NO.:7, VL SEQ ID NO.: 8, FAP binder: VH SEQ ID NO.:15, VL SEQ ID NO.: 16) was provided as stock solution from Roche, Penzberg, Germany. Antibody buffer included histidine. Antibody solution was diluted appropriately in buffer from stock prior injections. An Fc mutant of the prior art DR5 specific antibody Drozitumab was provided as stock solution from Roche, Penzberg, Germany. This antibody comprises three amino acid substitutions in the Fc domain that abolish binding to an activating or inhibitory Fc receptor and/or effector function wherein said amino acid substitutions are L234A, L235A and P329G. […]

[6] = system: Sarc4605 sarcoma xenograft; test: Sarc4605 sarcoma fragment based patient derived xenograft model (PDX); format: in vivo, nude mice; conditions: doxorubicin alone 5 mg/kg q7d
[7] = system: FcγR mutant mice; conditions: cited from earlier work
[8] = clinical studies; cited from earlier work
[9] = second figure of mono/combo, n.s. = not significant

Row | Compound | Fold change IC50 (DR5 ab mono vs combo) ([1]; n.s. = not significant) | % max. inhibition (combo) [1, 9] | IC50 ([1]; Homo sapiens, 72 h, agent alone, 3 days, read-out: IC50 monotherapy) [nM] | % max. inhibition (combo) [2, 9] | IC50 ([2]; Homo sapiens, Capan-2, 72 h, agent alone, 3 days, read-out: IC50 monotherapy) [nM] | IC50 ([3]; Homo sapiens, PANC-1, 72 h, agent alone, 3 days, read-out: IC50 monotherapy) [nM] | Fold change IC50 (DR5 ab mono vs combo) ([3]; n.s. = not significant) | % max. inhibition (combo) [3, 9] | % max. inhibition (mono) ([4]; first figure of mono/combo) [%] | Fold change IC50 (DR5 ab mono vs combo) ([4]; n.s. = not significant) | % max. inhibition (combo) [4, 9] [%] | IC50 ([4]; Homo sapiens, BXPC-3, 72 h, agent alone, 3 days, read-out: IC50 monotherapy) [nM] | tumor growth inhibition [5] [%] | tumor growth inhibition [6] [%] | in vivo activity [7] | maximally tolerated dose (MTD) [8] [mg/kg]
1 | COc1cccc2c1C(=O)c1c(O)c3c(c(O)c1C2=O)C[C@@](O)(C(=O)CO)C[C@@H]3O[C@H]1C[C@H](N)[C@H](O)[C@H](C)O1 [Doxorubicin, (7S,9S)-7-[(2R,4S,5S,6S)-4-amino-5-hydroxy-6-methyloxan-2-yl]oxy-6,9,11-trihydroxy-9-(2-hydroxyacetyl)-4-methoxy-8,10-dihydro-7H-tetracene-5,12-dione] | 5 | n.s. | 300 | n.s. | 1500 | 620 | n.s. | n.s. | 25 | 2 | 70 | 4000 | 77 | 77 | – | –
2 | Drozitumab: fully human DR5 agonistic antibody described in US2007/0031414 and WO 2006/083971 | – | – | – | – | – | – | – | – | – | – | – | – | – | – | inactive | > 20
